The source of these data is US10759766B2, “Certain chemical entities, compositions, and methods” (NeuPharma, Inc., priority 2011, dated 2020).

The target of one experiment is BRAF (Homo sapiens (Human), UniProt P15056). In words: Z′-LYTE kinase inhibition assay (Invitrogen), BRAF. The format is biochemical. The note with it: 1 μM compound, Z′-LYTE method; read-out: % inhibition at 1 μM against BRAF. On the procedure:
Inhibitory activities Inhibitory activities of compounds against BRAF, and BRAF V600E were measured by Invitrogen using Z′-LYTE® Method as briefly described in the following. 4× Test compounds are dissolved in 1% DMSO. […] ATP solutions are diluted to a 4×ATP working concentration in Kinase Buffer (50 mM HEPES pH 7.5, 0.01% BRIJ-35, 10 mM MgCl2, 1 mM EGTA). Reaction started by 30-second shaking of mixture consisting of 2.5 μL 4× test compound, […] and 2.5 μL 4×ATP Solution on Bar-coded Corning, low volume NBS, black 384-well plate (Corning Cat. #3676). Then the mixture was incubated for 60-minute at room temperature for the kinase reaction, followed by addition of 5 μL of a 1:1024 dilution of development reagent A and 30-second plate shake. The mixture was then incubated for another 60-minute at room temperature for development reaction. Fluorescence was read by plate reader. IC50 was calculated by plotting the concentration of compound vs the percentage of inhibition in treated wells using GraphPad Prism 5.

In a further experiment the test system is A549 cells. The experiment can be described thus: Inhibition of cancer cell growth, MTT assay, A549. The format is cell-based. Particulars: Homo sapiens, A549, 72 h exposure. An outline of the steps: (§1)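 IC50 derived from percent growth inhibition versus concentration, tested in triplicate. Growth inhibition came from MTT read at 570 nm after 72 h drug exposure, relative to viable cells at dosing. Cells (about 4000/well, RPMI 1640 + 10% FBS) adhered 24 h before treatment; final DMSO 1%.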
A general note: Formazan colour is commonly taken as a measure of viable cells.

A further experiment addresses KDR (VEGFR2) (Homo sapiens (Human), UniProt P35968). In words: Z′-LYTE kinase inhibition assay (Invitrogen), KDR. Particulars: Z′-LYTE method; for inhibition at 1 µM: 1 μM compound, read-out: % inhibition at 1 μM against KDR; for pIC50: read-out: IC50 against KDR. In kind it is biochemical. An outline of the steps:
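Z′-LYTE FRET assay: 10 μL reactions with 0.5–11.7 ng KDR and 2 μM Tyr 01 peptide in 50 mM HEPES pH 7.5, 10 mM MgCl2, 1 mM EGTA, 0.01% BRIJ-35, 1 h at room temperature. Development Reagent B (1:256) added for 60 min, fluorescence read; IC50 from concentration–inhibition curves.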

The subject of the next experiment is A375 cells. In words: Inhibition of cancer cell growth, MTT assay, A375. The format is cell-based. The note with it: Homo sapiens, A-375, 72 h exposure. An outline of the steps:
as §1

A further experiment concerns the target BRAF V600E (Homo sapiens (Human), UniProt P15056, V600E). The experiment can be described thus: Z′-LYTE kinase inhibition assay (Invitrogen), BRAF V600E. The note with it: Z′-LYTE method; for inhibition at 1 µM: 1 μM compound, read-out: % inhibition at 1 μM against BRAF V600E; for pIC50: read-out: IC50 against BRAF V600E. In kind it is biochemical. In outline: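 FRET-based Z′-LYTE peptide phosphorylation format in 50 mM HEPES pH 7.5, 0.01% BRIJ-35, 10 mM MgCl2, 1 mM EGTA with ATP. Kinase reaction 60 min at room temperature, then protease development step 60 min at room temperature before fluorescence read. IC50 from compound concentration versus percent inhibition.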

pIC50: −log10 of the molar value.

The term inhibition denotes the percentage by which the read-out fell short of the control. A word on the pIC50: it is the IC50 on a negative log10 scale, so that one unit is a factor of ten.

BRAF, sequence (P15056 whole entry): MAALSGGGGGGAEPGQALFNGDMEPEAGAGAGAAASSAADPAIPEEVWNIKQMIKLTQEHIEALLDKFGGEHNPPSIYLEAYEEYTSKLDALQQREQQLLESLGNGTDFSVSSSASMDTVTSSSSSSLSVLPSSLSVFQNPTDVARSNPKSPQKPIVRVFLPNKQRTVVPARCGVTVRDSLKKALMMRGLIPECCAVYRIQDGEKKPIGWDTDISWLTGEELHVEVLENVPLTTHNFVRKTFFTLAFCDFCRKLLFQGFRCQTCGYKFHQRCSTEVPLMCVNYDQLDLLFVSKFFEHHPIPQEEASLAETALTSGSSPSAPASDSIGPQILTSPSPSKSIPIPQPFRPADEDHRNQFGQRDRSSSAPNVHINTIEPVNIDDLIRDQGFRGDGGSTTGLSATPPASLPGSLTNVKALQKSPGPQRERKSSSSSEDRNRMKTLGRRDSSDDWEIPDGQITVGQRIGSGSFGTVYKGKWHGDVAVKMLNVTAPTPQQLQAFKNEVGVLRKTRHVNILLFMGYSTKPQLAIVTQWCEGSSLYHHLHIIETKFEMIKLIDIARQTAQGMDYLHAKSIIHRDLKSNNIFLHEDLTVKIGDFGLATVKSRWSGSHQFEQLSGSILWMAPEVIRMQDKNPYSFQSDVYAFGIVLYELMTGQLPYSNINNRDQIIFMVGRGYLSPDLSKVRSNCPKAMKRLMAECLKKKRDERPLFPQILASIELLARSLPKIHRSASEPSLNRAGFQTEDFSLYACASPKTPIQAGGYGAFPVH
BRAF V600E, sequence (P15056 whole entry V600E): as the sequence (P15056 whole entry) above, with V600E counted along it
KDR (VEGFR2), sequence (P35968 20-1356): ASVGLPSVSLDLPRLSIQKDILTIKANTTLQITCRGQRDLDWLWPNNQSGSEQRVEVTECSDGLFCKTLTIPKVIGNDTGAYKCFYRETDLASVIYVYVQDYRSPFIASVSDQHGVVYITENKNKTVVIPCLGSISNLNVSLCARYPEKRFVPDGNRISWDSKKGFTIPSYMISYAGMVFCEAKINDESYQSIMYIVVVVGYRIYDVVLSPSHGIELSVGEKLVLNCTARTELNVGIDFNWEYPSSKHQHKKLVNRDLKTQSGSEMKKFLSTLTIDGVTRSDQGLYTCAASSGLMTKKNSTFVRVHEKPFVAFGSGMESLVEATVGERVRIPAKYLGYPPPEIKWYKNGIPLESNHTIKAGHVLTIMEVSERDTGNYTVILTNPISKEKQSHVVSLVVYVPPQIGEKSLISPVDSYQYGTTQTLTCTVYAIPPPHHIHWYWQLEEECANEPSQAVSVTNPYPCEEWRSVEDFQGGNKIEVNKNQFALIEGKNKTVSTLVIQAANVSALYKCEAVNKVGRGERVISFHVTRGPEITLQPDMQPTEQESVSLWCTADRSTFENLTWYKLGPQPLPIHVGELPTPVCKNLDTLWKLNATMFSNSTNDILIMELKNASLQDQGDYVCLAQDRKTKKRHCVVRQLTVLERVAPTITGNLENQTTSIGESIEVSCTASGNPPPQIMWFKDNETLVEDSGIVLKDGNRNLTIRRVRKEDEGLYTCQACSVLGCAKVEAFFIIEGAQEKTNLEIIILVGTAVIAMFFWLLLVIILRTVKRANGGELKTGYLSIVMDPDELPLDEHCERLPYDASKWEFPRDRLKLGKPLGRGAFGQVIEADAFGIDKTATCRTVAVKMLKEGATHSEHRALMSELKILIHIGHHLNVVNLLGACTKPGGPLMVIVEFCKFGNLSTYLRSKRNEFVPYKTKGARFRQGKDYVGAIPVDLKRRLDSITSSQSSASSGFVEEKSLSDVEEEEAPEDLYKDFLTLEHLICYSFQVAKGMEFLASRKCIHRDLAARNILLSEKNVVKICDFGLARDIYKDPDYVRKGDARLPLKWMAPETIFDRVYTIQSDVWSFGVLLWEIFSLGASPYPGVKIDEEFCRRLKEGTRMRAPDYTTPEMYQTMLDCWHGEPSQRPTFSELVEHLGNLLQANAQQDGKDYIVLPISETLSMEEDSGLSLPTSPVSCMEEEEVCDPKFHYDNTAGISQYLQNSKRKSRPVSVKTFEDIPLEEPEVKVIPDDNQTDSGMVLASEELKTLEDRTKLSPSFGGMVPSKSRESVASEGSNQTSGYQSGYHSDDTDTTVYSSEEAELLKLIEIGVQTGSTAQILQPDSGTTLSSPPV

For `Cn1cc(-c2cnc3ccc(C(=O)c4cccc(NC(=O)Nc5ccc(Cl)c(C(F)(F)F)c5)c4)cc3n2)cn1` [Compound C028, 1-(4-chloro-3-(trifluoromethyl)phenyl)-3-(3-(3-(1-methyl-1H-pyrazol-4-yl)quinoxaline-6-carbonyl)phenyl)urea], the inhibition at 1 µM at BRAF was 70 to 89%; on KDR (VEGFR2) it was more than 89%; at BRAF V600E, more than 89%. In addition, the negative logarithm of the IC50 (pIC50) with A549 cells was more than 5.70; at KDR (VEGFR2) it was more than 7.00; in the experiment with A375 cells, more than 6.00; at BRAF V600E, more than 7.00.
As to `O=C(Nc1cccc(C(=O)c2ccc3nccnc3c2)c1)c1cccc(C(F)(F)F)c1` [Compound C110, N-(3-(quinoxaline-6-carbonyl)phenyl)-3-(trifluoromethyl)benzamide], the inhibition at 1 µM on BRAF is 70 to 89%; at KDR (VEGFR2) it was less than 70%; at BRAF V600E, 70 to 89%. For the same molecule, the pIC50 was 5.30 to 5.70 in the experiment on A549 cells and less than 5.30 in the experiment on A375 cells.
As to `O=C(Nc1cccc(C(=O)c2ccc3nccnc3c2)c1)Nc1ccc(Cl)c(C(F)(F)F)c1` [Compound C004, 1-(4-chloro-3-(trifluoromethyl)phenyl)-3-(3-(quinoxaline-6-carbonyl)phenyl)urea], the inhibition at 1 µM is 70 to 89% at BRAF, 70 to 89% on KDR (VEGFR2) and more than 89% on BRAF V600E. In addition, the pIC50 with A549 cells is more than 5.70; on KDR (VEGFR2) it was more than 7.00; in the experiment on A375 cells it was 5.30 to 6.00; on BRAF V600E, more than 7.00.
With `O=C(Nc1cccc(C(F)(F)F)c1)Nc1ccc(F)c(C(=O)c2ccc3nccnc3c2)c1` [Compound C014, 1-(4-fluoro-3-(quinoxaline-6-carbonyl)phenyl)-3-(3-(trifluoromethyl)phenyl)urea], the results for the inhibition at 1 µM at BRAF, on KDR (VEGFR2) and on BRAF V600E were less than 70%, 70 to 89% and more than 89%, respectively. The pIC50 in the experiment with A549 cells was more than 5.70; at KDR (VEGFR2) it was more than 7.00; in the experiment on A375 cells, more than 6.00; at BRAF V600E, more than 7.00.
For `O=C(Nc1cccc(C(=O)c2ccc3ncc(-n4ccnc4)nc3c2)c1)c1ccc(Cl)c(C(F)(F)F)c1` [Compound C132, N-(3-(3-(1H-imidazol-1-yl)quinoxaline-6-carbonyl)phenyl)-4-chloro-3-(trifluoromethyl)benzamide], the inhibition at 1 µM on BRAF is less than 70%; on KDR (VEGFR2), 70 to 89%; at BRAF V600E, more than 89%. In addition, the pIC50 in the experiment with A549 cells is less than 5.30; with A375 cells it was more than 6.00.
For `O=C(Nc1ccnc(C(F)(F)F)c1)Nc1ccc(F)c(C(=O)c2ccc3ncc(N4CCOCC4)nc3c2)c1` [Compound C090, 1-(4-fluoro-3-(3-morpholinoquinoxaline-6-carbonyl)phenyl)-3-(2-(trifluoromethyl)pyridin-4-yl)urea], in that order: more than 89%, 70 to 89%, more than 89%, less than 5.30 and more than 6.00.
The matching figures for `O=C(Nc1cc(F)c(F)c(C(=O)c2ccc3nccnc3c2)c1F)c1cccc(F)c1` [Compound C108, 3-fluoro-N-(2,4,5-trifluoro-3-(quinoxaline-6-carbonyl)phenyl)benzamide]: less than 70%, less than 70%, 70 to 89%, 5.30 to 5.70 and less than 5.30.
Take `O=C(Nc1ccc(F)c(C(=O)c2ccc3ncc(N4CCOCC4)nc3c2)c1)c1ccc(Cl)c(C(F)(F)F)c1` [Compound C134, 4-chloro-N-(4-fluoro-3-(3-morpholinoquinoxaline-6-carbonyl)phenyl)-3-(trifluoromethyl)benzamide]: the inhibition at 1 µM on BRAF is less than 70%; at KDR (VEGFR2) it was more than 89%; on BRAF V600E, 70 to 89%. For the same molecule, the pIC50 with A549 cells is 5.30 to 5.70; on KDR (VEGFR2), more than 7.00; in the experiment on A375 cells, more than 6.00; at BRAF V600E, less than 7.00.
Consider `O=C(Nc1ccc(Cl)c(C(F)(F)F)c1)Nc1ccc(F)c(C(=O)c2ccc3nccnc3c2)c1Cl` [Compound C008, 1-(4-chloro-3-(trifluoromethyl)phenyl)-3-(2-chloro-4-fluoro-3-(quinoxaline-6-carbonyl)phenyl)urea], for which the inhibition at 1 µM at BRAF, at KDR (VEGFR2) and at BRAF V600E was less than 70% throughout. In addition, the pIC50 with A549 cells was 5.30 to 5.70; in the experiment on A375 cells, less than 5.30.
Consider `O=C(Nc1cccc(C(=O)c2ccc3nccnc3c2)c1)c1ccc(C(F)(F)F)c(Cl)c1` [Compound C107, 3-chloro-N-(3-(quinoxaline-6-carbonyl)phenyl)-4-(trifluoromethyl)benzamide], for which the inhibition at 1 µM at BRAF was less than 70%; on KDR (VEGFR2), less than 70%; on BRAF V600E, more than 89%. Also, the pIC50 in the experiment with A549 cells is less than 5.30; with A375 cells, 5.30 to 6.00.
Take `COc1cnc2ccc(C(=O)c3cc(NC(=O)Nc4ccc(F)cc4)ccc3F)cc2n1` [Compound C080, 1-(4-fluoro-3-(3-methoxyquinoxaline-6-carbonyl)phenyl)-3-(4-fluorophenyl)urea]: the inhibition at 1 µM at BRAF was 70 to 89%; at KDR (VEGFR2), 70 to 89%; at BRAF V600E, more than 89%. Also, the pIC50 is 5.30 to 5.70 in the experiment with A549 cells, more than 7.00 on KDR (VEGFR2) and 5.30 to 6.00 in the experiment on A375 cells.
Regarding `O=C(Nc1cccc(C(=O)c2ccc3ncc(-c4cn[nH]c4)nc3c2)c1)c1ccc(Cl)c(C(F)(F)F)c1` [Compound C133, N-(3-(3-(1H-pyrazol-4-yl)quinoxaline-6-carbonyl)phenyl)-4-chloro-3-(trifluoromethyl)benzamide], the inhibition at 1 µM was less than 70% at BRAF, more than 89% at KDR (VEGFR2) and 70 to 89% at BRAF V600E. The pIC50 in the experiment on A549 cells is 5.30 to 5.70; in the experiment on A375 cells it was more than 6.00.
Consider `O=C(Nc1cccc(F)c1)Nc1ccc(F)c(C(=O)c2ccc3ncc(N4CCOCC4)nc3c2)c1` [Compound C035, 1-(4-fluoro-3-(3-morpholinoquinoxaline-6-carbonyl)phenyl)-3-(3-fluorophenyl)urea], for which the inhibition at 1 µM on BRAF was 70 to 89%; at KDR (VEGFR2), 70 to 89%; at BRAF V600E it was more than 89%. For the same molecule, the pIC50 was 5.30 to 5.70 in the experiment with A549 cells, more than 7.00 on KDR (VEGFR2), more than 6.00 with A375 cells and more than 7.00 at BRAF V600E.
For the molecule `O=C(Nc1cccc(C(=O)c2ccc3ncc(N4CCOCC4)nc3c2)c1)c1cccc(C(F)(F)F)c1` [Compound C119, N-(3-(3-morpholinoquinoxaline-6-carbonyl)phenyl)-3-(trifluoromethyl)benzamide], the inhibition at 1 µM is 70 to 89% at BRAF, more than 89% on KDR (VEGFR2) and more than 89% on BRAF V600E. Further, the pIC50 in the experiment on A549 cells is 5.30 to 5.70; at KDR (VEGFR2), more than 7.00; with A375 cells it was more than 6.00; on BRAF V600E, more than 7.00.
In the case of `O=C(Nc1cccc(C(=O)c2ccc3ncc(N4CCCC4)nc3c2)c1)c1cccc(F)c1` [Compound C121, 3-fluoro-N-(3-(3-(pyrrolidin-1-yl)quinoxaline-6-carbonyl)phenyl)benzamide], the inhibition at 1 µM is less than 70% at BRAF, 70 to 89% at KDR (VEGFR2) and 70 to 89% at BRAF V600E. Besides, the pIC50 with A549 cells was more than 5.70; on KDR (VEGFR2), more than 7.00; in the experiment with A375 cells, more than 6.00; on BRAF V600E, less than 7.00.
In the case of `O=C(Nc1ccc(F)cc1)Nc1ccc(F)c(C(=O)c2ccc3ncc(N4CCNCC4)nc3c2)c1` [Compound C100, 1-(4-fluoro-3-(3-(piperazin-1-yl)quinoxaline-6-carbonyl)phenyl)-3-(4-fluorophenyl)urea], the inhibition at 1 µM at BRAF, on KDR (VEGFR2) and on BRAF V600E was more than 89% each time. For the same molecule, the pIC50 was 5.30 to 5.70 with A549 cells and more than 7.00 at KDR (VEGFR2).
